Results: US10077264B2, “Derivatives and methods of treating hepatitis B infections” (Novira Therapeutics, Inc., priority 2014, dated 2018)
Where two headings read alike, the source gives them in different places.

Test system: HBV replication in HepG2.2.15 cells
Assay: HBV replication inhibition assay (BDNA assay)
Assay type: cell-based
Conditions: Hepatitis B virus; for EC50: HepG2.2.15, 144 h, read-out: Activity in BDNA-assay (EC50); for inhibition at 10 µM: 144 h, read-out: Activity in BDNA-assay (activity at 10 μM)
From the text: HBV replication inhibition by the compounds of this invention could be determined in cells infected or transfected with HBV, or cells with stably integrated HBV, such as HepG2.2.15 cells (Sells et al. 1987). In this example, HepG2.2.15 cells were maintained in cell culture medium containing 10% fetal bovine serum (FBS), Geneticin, L-glutamine, penicillin and streptomycin. HepG2.2.15 cells could be seeded in 96-well plates at a density of 40,000 cells/well and be treated with serially diluted compounds at a final DMSO concentration of 0.5% either alone or in combination by adding drugs in a checker box format. Cells were incubated with compounds for three days, after which medium was removed and fresh medium containing compounds was added to cells and incubated for another three days. At day 6, supernatant was removed and treated with DNase at 37° C. for 60 minutes, followed by enzyme inactivation at 75° C. for 15 minutes. Encapsidated HBV DNA was released from the virions and covalently linked HBV polymerase by incubating in lysis buffer (Affymetrix QS0010) containing […] proteinase K at 50° C. for 40 minutes. HBV DNA was denatured by addition of 0.2 M NaOH and detected using a branched DNA (BDNA) QuantiGene assay kit according to manufacturer recommendation (Affymetrix). HBV DNA levels could also be quantified using qPCR, based on amplification of encapsidated HBV DNA extraction with QuickExtraction Solution (Epicentre Biotechnologies) and amplification of HBV DNA using HBV specific PCR probes that can hybridize to HBV DNA and a fluorescently labeled probe for quantitation. In addition, cell viability of HepG2.2.15 cells incubated with test compounds alone or in combination was determined by using CellTitre-Glo reagent according to the manufacturer protocol (Promega). The mean background signal from wells containing only culture medium was subtracted from all other samples, and percent inhibition at each compound concentration was calculated by normalizing to signals from HepG2.2.15 cells treated with 0.5% DMSO using equation E1. % inhibition=(DMSOave−Xi)/DMSOave×100% E1: • where DMSOave is the mean signal calculated from the wells that were treated with DMSO control (0% inhibition control) and Xi is the signal measured from the individual wells. EC50 values, effective concentrations that achieved 50% inhibitory effect, were determined by non-linear fitting using Graphpad Prism software (San Diego, Calif.) and equation E2 Y=Ymin+(Ymax−Ymin)/(1+10(Log EC50−X)×HillSlope) E2: • where Y represents percent inhibition values and X represents the logarithm of compound concentrations.
Selected compounds of the invention were assayed in the HBV replication assay (BDNA assay), as described above and a representative group of these active compounds is shown in Table 3.

[1] = HepG2.2.15 cells, 6 days, encapsidated HBV DNA in supernatant

SMILES	inhibition at 10 µM [1]	further results
O=C(Nc1ccccc1)N1CCc2[nH]nc(-c3ccccc3)c2C1 [Compound 022, N,3-diphenyl-1,4,6,7-tetrahydropyrazolo[4,3-c]pyridine-5-carboxamide]	–	EC50: 0.1 to 0.5 µM
O=C(OCc1ccccc1)N1CCc2[nH]nc(-c3ccccc3)c2C1 [Compound 024, benzyl 3-phenyl-1,4,6,7-tetrahydropyrazolo[4,3-c]pyridine-5-carboxylate]	> 50%	–
O=C(CCc1ccccc1)N1CCc2[nH]nc(-c3ccccc3)c2C1 [Compound 027, 3-phenyl-1-(3-phenyl-1,4,6,7-tetrahydropyrazolo[4,3-c]pyridin-5-yl)propan-1-one]	> 50%	–
O=C(/C=C/c1ccccc1)N1CCc2[nH]nc(-c3ccccc3)c2C1 [Compound 057, (E)-3-phenyl-1-(3-phenyl-1,4,6,7-tetrahydropyrazolo[4,3-c]pyridin-5-yl)prop-2-en-1-one]	> 50%	–
O=C(Nc1cccc(Cl)c1)N1CCc2[nH]nc(-c3ccccc3)c2C1 [Compound 112]	–	EC50 [1]: 0.01 to 0.1 µM
O=C(Nc1ccc(Cl)cc1)N1CCc2[nH]nc(-c3ccccc3)c2C1 [Compound 113]	> 50%	–
O=C(Nc1ccc(F)c(Cl)c1)N1CCc2[nH]nc(-c3ccccc3)c2C1 [Compound 114]	–	EC50 [1]: 0.01 to 0.1 µM
O=C(COc1ccccc1F)N1CCc2[nH]nc(-c3ccccc3)c2C1 [Compound 142]	> 50%	–
O=C(COc1cccc(F)c1)N1CCc2[nH]nc(-c3ccccc3)c2C1 [Compound 143]	> 50%	–
O=C(COc1ccc(F)cc1)N1CCc2[nH]nc(-c3ccccc3)c2C1 [Compound 144]	> 50%	–
Cc1cccc(OCC(=O)N2CCc3[nH]nc(-c4ccccc4)c3C2)c1 [Compound 145]	> 50%	–
Cc1ccc(OCC(=O)N2CCc3[nH]nc(-c4ccccc4)c3C2)cc1 [Compound 147]	> 50%	–
O=C(COc1ccccc1Cl)N1CCc2[nH]nc(-c3ccccc3)c2C1 [Compound 148]	> 50%	–
O=C(COc1cccc(Cl)c1)N1CCc2[nH]nc(-c3ccccc3)c2C1 [Compound 149]	> 50%	–
O=C(COc1ccc(Cl)cc1)N1CCc2[nH]nc(-c3ccccc3)c2C1 [Compound 150]	> 50%	–
N#Cc1ccccc1OCC(=O)N1CCc2[nH]nc(-c3ccccc3)c2C1 [Compound 154]	> 50%	–
N#Cc1ccc(OCC(=O)N2CCc3[nH]nc(-c4ccccc4)c3C2)cc1 [Compound 156]	> 50%	–
O=C(COc1ccccc1C(F)(F)F)N1CCc2[nH]nc(-c3ccccc3)c2C1 [Compound 163]	> 50%	–
O=C(COc1cccc(C(F)(F)F)c1)N1CCc2[nH]nc(-c3ccccc3)c2C1 [Compound 164]	> 50%	–
O=C(COc1ccc(C(F)(F)F)cc1)N1CCc2[nH]nc(-c3ccccc3)c2C1 [Compound 165]	> 50%	–
O=C(C1COc2ccccc2O1)N1CCc2[nH]nc(-c3ccccc3)c2C1 (centres unmarked) [Compound 171]	> 50%	–
O=C(Nc1cccc(Cl)c1Cl)N1CCc2[nH]nc(-c3ccccc3)c2C1 [Compound 190]	–	EC50 [1]: 0.5 to 1 µM
O=C(Nc1cc(Cl)ccc1Cl)N1CCc2[nH]nc(-c3ccccc3)c2C1 [Compound 191]	–	EC50 [1]: 0.5 to 1 µM
Cc1c(Cl)cccc1NC(=O)N1CCc2[nH]nc(-c3ccccc3)c2C1 [Compound 192]	–	EC50 [1]: 0.1 to 0.5 µM
N#Cc1ccc(Cl)cc1NC(=O)N1CCc2[nH]nc(-c3ccccc3)c2C1 [Compound 201]	> 50%	–
O=C(Nc1ccc(Br)c(Cl)c1)N1CCc2[nH]nc(-c3ccccc3)c2C1 [Compound 204]	> 50%	–
